According to patent US5929082A, “Potassium ion channel blockers” (priority 1995, dated 1999):

Tests used:
[1] = Hypoglycaemic activity: change in blood glucose after oral gavage; assay type: in vivo, Sprague Dawley rats; details: 1.6 mg/kg oral gavage, normal fed male rats
Experimental: The biological activity of representative compounds of the invention was evaluated by means of several different tests. The activity of compounds of this invention as hypoglycaemic agents was measured and compared with the activity of the known compound of Example 1, using methods described in the literature. Thus normal, fed male Sprague Dawley rats weighing between 275 and 375 g were studied for changes in blood sugar levels and alterations to mean arterial blood pressure following administration of representative compounds of the invention suspended in a 5% solution of gum acacia by oral gavage at a dose of 1.6 mg/kg. The concentration of each compound was 4 mg in 10 ml, so that each rat received 1.1-1.5 ml to obtain the desired dose on a body weight basis. The blood sugar levels were recorded for each rat immediately prior to administration, and at 1, 2, and 3 hr following administration of the test compounds. Blood glucose levels were determined on blood samples taken from the tail, and analysed on an Ames blood glucometer, model 5626, and Ames, 2627 blood glucose strips (number 2). […] It is apparent that generally the heterocyclic sulphonylthioureas have greater activity than the sulphonylureas. Without wishing to be bound by any proposed mechanism for the observed effect, we believe that this may be associated with differences in lipid permeability.

[2] = design: species or system Sprague-Dawley rats; details: rat, in vivo, po
Experimental: Representative compounds were evaluated for their effect on glucose tolerance following oral administration at doses ranging from 0.005 mg/kg to 100 mg/kg. Normal male Sprague-Dawley rats were dosed with a test compound daily for five days, and were fasted overnight prior to days 1 and 5. Control animals were given ether vehicle only, or Glibenclamide (glyburide; N-[4-(β-)(2-methoxy-5-chlorobenzamido)ethyl)benzosulphonyl)-N'-cyclohexylurea]; 2 mg/kg/day). Blood was collected on day zero and on days one and five at 0, 0.5, 1, 1.5 and 2 hours after drug administration. Blood glucose concentrations were then measured in duplicate using standard glucose oxidase analysis. The samples were assayed using a Hitachi U-200 Spectrophotometer at a wavelength of 505 nm. The weight gain of each rat was also measured over the five day period, and all results were compared to both the negative control group (dosing with vehicle only) and the positive control group (dosing with Glibenclamide). […] Doses of drugs administered were minimised so as to reduce differences in weight gain whilst retaining hypoglycaemic activity. […]
Each point represents the effect of each dose on the rats glucose tolerance or ability to gain weight, expressed as a percentage of the control (normal) response (where control=100% response). […]

[3] = Kinetic/metabolite studies: HPLC analysis of plasma after oral administration; assay type: in vivo, Sprague-Dawley rats; details: after oral administration, HPLC
Experimental: Plasma samples were collected in order to test the correlation of plasma drug (or metabolite) concentration with hypoglycaemic activity, and to determine whether compounds of the invention were converted in vivo into active metabolites. The plasma levels of test compounds or metabolites also give an indication of rate of metabolism and kinetics of drug action.
Blood samples collected from rats treated as above and collected at the same intervals were analysed using an ICI LC1150 HPLC system and a LC1210 UV detector at a wavelength of 227 nm. The HPLC system used a Merck LiChroCART 125-4 LiChrosphere 100 RP-18 HPLC and LiChrosphere 100 RP-18 guard columns. The mobile phase consisted of 70% acetonitrile and a 30% aqueous sodium phosphate buffer at pH 7.45 and was prepared using standard HPLC grade reagents and distilled water. To improve the resolution of peaks and separation of the compounds a gradient method was established where changes in the concentration of the required buffers and solvents, and the time at which these changes occur is outlined in Table 7. The volumes are expressed as percentages of the total flow rate, with the flow rate remaining constant at […].
The data were acquired using the WinChrom Data Management system and were calibrated using stock solutions of the test compounds and Glibenclamide as an internal standard dissolved in 100% methanol
Plasma (250 μL) collected from the rats were extracted into methanol (700 μL) and 50 μL of Glibenclamide (25 μg/ml). The mixture was then agitated with a vortex mixer for 15 sec and centrifuged for 10 min. The clear supernatant was then carefully aspirated for HPLC analysis.
The results are outlined in Table 8 and show retention times (minutes) for the compounds and their metabolites as analysed by HPLC after oral administration in Sprague-Dawley rats. […] Glibenclamide is shown for comparison only, none of the metabolites observed with the test compounds correspond to metabolites of Glibenclamide.

[4] = test system: MCF-7 mammary carcinoma cells; assay: Thymidine uptake ([methyl-3H] thymidine incorporation into DNA); assay type: cell-based, human; details: 100 μM (printed 100 μH / 100 mM), compared to control group; Glibenclamide n=3, Compound 1-24 n=4
Experimental: Incorporation of [methyl-3H] thymidine into DNA was measured as described by Murphy and Lazarus (1983), using MCF-7 mammary carcinoma cells treated with compound 1-24 (100 μH) and a control group. The growth medium from cells cultured as described in Example 24 was aspirated from the wells, and 1 mL of fresh growth medium containing 1 μCi [3H]-thymidine (Amersham) was added to each well After 4 hours incubation, the medium was aspirated and the monolayers were washed three times with ice cold phosphate buffered saline (ICN). This was followed by three washes with 10% (v/v) ice cold trichloroacetic acid, each of 5 minutes duration. After another three washes with absolute ethanol at room temperature of 5 minutes duration, the monolayer was dried at room temperature for 10 minutes. The monolayer was […] after incubation for 12 hours with 0.5 N NaOH and 1% Triton-X 100 (Sigma). An aliquot of the cell lysate was added to 10 ml of Ultima Gold (Packard) and counted using a liquid scintillation counter (Packard model 19006A).

[5] = test system: MCF-7 human mammary carcinoma cells; details: concentration-dependent; Woodfork et al, 1995; read-out: IC50, inhibition of cell proliferation; cited from earlier work
[6] = test system: MCF-7 human mammary carcinoma cells; details: Woodfork et al, 1995, cited from earlier work
rat heart = details: 1 μM, rat heart stimulated at 5 Hz; Kantor et al, 1987; cited from earlier work

SMILES: COc1ccc(Cl)cc1C(=O)NCCc1ccc(S(=O)(=O)NC(=O)NC2CCCCC2)cc1 [Glibenclamide, reference compound]
- Change in Blood Glucose, 0 hours ([1]; 0 hours): 0.0 mmol/L
- Change in Blood Glucose, 1 Hour ([1]; 1 hour): 0.6 mmol/L
- Change in Blood Glucose, 2 Hours ([1]; 2 hours): -2.1 mmol/L
- Change in Blood Glucose, 3 Hours ([1]; 3 hours): -2.4 mmol/L
- weight gain over a five day period [2]: decreased their observed weight gain
- Compound in plasma [3]: no
- inhibition of thymidine uptake [4]: significant inhibition
- IC50 [5]: 50 µM
- accumulation at the G0/G1 phase in cell cycle distribution [6]: statistically significant accumulation at the G0/G1 phase
- cell-cycle arrest ([6]; inhibition of KATP channels): reversible cell-cycle arrest
- effect on ischaemia-induced ventricular arrhythmias / K+ loss (rat heart): prevent or reduce ischaemia-induced ventricular arrhythmias
